From patent US20230113037A1 (Bayer Aktiengesellschaft, priority 2019, published 2023)
Where two headings read alike, the source gives them in different places.

How the values were obtained:
[1] = molecular target: T1, AHR (Homo sapiens, UniProt P35869); test: In vitro assay 1: antagonism in human cell line (AHR transactivation, firefly luciferase reporter, kynurenic acid prestimulated); format: cell-based; details: AHR Antagonism Human IC50 [M], firefly luciferase reporter
T1 construct: U87 MG glioblastoma cells (ATCC #HTB-14) endogenously expressing AHR; endogenous in cells; host or cells: U87 MG glioblastoma cells (ATCC #HTB-14)
T1 sequence (P35869 11-848): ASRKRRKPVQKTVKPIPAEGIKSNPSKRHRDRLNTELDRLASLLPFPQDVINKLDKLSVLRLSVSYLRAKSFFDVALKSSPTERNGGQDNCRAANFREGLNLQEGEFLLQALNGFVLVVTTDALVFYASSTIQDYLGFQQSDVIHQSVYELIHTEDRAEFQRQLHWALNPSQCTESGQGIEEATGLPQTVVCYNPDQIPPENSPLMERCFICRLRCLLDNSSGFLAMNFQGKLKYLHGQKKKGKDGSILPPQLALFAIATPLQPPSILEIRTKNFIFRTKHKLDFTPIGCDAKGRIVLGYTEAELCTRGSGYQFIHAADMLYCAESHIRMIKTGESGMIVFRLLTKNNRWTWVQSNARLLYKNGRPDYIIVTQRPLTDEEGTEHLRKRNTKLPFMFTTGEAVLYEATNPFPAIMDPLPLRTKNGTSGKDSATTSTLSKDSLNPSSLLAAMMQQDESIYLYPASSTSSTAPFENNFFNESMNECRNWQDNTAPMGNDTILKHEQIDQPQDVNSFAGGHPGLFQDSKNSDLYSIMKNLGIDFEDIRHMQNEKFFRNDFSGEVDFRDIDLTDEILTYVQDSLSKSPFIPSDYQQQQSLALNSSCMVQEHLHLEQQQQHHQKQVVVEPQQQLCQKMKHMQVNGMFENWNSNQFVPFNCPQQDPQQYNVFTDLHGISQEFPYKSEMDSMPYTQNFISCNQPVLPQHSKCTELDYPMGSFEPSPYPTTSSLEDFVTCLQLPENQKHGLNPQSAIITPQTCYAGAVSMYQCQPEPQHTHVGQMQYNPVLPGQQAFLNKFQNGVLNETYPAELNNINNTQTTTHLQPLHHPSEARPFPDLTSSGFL
Summary of the method: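 Antagonism measured as loss of kynurenic acid-driven firefly luciferase from DRE reporter in stably transfected U87 MG cells; constitutive Renilla signal monitors cytotoxicity. Positive/negative control normalization, staurosporine 5 μM with 150 μM kynurenic acid as inhibition control; replicates given as mean or median.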

[2] = molecular target: T2, AHR (Mus musculus, UniProt P30561); test: In vitro assay 3: antagonism in mouse cell line (AHR transactivation, firefly luciferase reporter, kynurenic acid prestimulated); format: cell-based
T2 sequence (P30561 1-848 P471L/N533S/M589L): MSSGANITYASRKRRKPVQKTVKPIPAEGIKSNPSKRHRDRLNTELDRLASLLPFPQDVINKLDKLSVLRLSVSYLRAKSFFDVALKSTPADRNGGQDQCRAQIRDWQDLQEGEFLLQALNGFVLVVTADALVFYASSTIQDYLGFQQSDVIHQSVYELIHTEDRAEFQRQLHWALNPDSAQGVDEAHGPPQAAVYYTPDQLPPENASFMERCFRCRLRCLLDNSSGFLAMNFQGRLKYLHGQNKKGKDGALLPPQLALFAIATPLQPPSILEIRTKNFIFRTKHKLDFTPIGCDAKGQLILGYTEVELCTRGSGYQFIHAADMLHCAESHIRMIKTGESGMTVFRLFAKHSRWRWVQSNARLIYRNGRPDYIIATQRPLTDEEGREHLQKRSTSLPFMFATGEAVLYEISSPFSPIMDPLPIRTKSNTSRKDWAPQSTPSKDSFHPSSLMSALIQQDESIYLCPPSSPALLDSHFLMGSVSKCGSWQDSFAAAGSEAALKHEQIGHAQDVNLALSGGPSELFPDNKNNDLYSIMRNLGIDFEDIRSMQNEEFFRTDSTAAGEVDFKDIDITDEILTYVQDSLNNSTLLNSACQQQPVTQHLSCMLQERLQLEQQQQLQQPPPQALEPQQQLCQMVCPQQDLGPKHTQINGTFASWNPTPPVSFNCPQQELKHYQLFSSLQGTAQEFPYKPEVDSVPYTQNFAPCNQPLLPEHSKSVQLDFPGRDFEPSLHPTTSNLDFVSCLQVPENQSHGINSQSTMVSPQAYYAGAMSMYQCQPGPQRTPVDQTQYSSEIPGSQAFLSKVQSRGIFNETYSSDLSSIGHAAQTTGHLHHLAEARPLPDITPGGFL
Summary of the method: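 Antagonism read as reduced firefly luciferase signal (SteadyGlo) from a stably transfected AHR/DRE reporter in a mouse line prestimulated with kynurenic acid. Data normalized to controls, the full-inhibition control being cells without kynurenic acid; multiple determinations given as average or median values.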

[3] = Hepa 1c1c7 cells, 200 μM kynurenic acid, 20 hours, firefly luciferase reporter, read-out: AHR Antagonism Mouse IC50

| Compound | IC50 [1] | IC50 [2, 3] | IC50 ([2]; read-out: AHR Antagonism Mouse IC50, Hepa 1c1c7 cells, 200 μM kynurenic acid, 20 hours, firefly luciferase reporter) |
| --- | --- | --- | --- |
| Cc1c(-c2nc3c4cccc(F)c4nc(N[C@@H]4CCCCNC4=O)n3n2)cnn1C [Example 835, (3R)-3-{[2-(1,5-dimethyl-1H-pyrazol-4-yl)-7-fluoro[1,2,4]triazolo[1,5-c]quinaozlin-5-yl]amino}azepan-2-one] | 1.54e-08 M | 18.5 nM |  |
| CC(C)n1cc(-c2nc3c4cccc(F)c4nc(N[C@@H]4CCCCNC4=O)n3n2)cn1 [Example 836] | 4.19e-09 M | 4.95 nM |  |
| COc1ccc(-c2nc3c4cccc(S(=O)(=O)C(C)C)c4nc(N[C@@H]4CCCCNC4=O)n3n2)cc1 [Example 843, (3R)-3-{[2-(4-methoxyphenyl)-7-(propane-2-sulfonyl)[1,2,4]triazolo[1,5-c]quinazolin-5-yl]amino}azepan-2-one] | 4.46e-09 M | 11.1 nM |  |
| CC(C)S(=O)(=O)c1cccc2c1nc(N[C@@H]1CCCCNC1=O)n1nc(-c3cnn(C)c3)nc21 [Example 845, (3R)-3-{[2-(1-methyl-1H-pyrazol-4-yl)-7-(propane-2-sulfonyl)[1,2,4]triazolo[1,5-c]quinazolin-5-yl]amino}azepan-2-one] | 6.71e-08 M | 247 nM |  |
| CC(C)n1cc(-c2nc3c4cccc(S(C)(=O)=O)c4nc(N[C@@H]4CCCCNC4=O)n3n2)cn1 [Example 846, (3R)-3-({7-(methanesulfonyl)-2-[1-(propan-2-yl)-1H-pyrazol-4-yl][1,2,4]triazolo[1,5-c]quinazolin-5-yl}amino)azepan-2-one] | 1.29e-08 M | 232 nM |  |
| Cn1cc(-c2nc3c4cccc(Br)c4nc(N[C@H]4CS(=O)(=O)CCNC4=O)n3n2)cn1 [Example 848, (6R)-6-{[7-bromo-2-(1-methyl-1H-pyrazol-4-yl)[1,2,4]triazolo[1,5-c]quinazolin-5-yl]amino}-1λ^6,4-thiazepane-1,1,5-trione] | 1.69e-07 M | 197 nM |  |
| COc1ccc(-c2nc3c4cccc(Br)c4nc(N[C@@H]4CS(=O)(=O)CCNC4=O)n3n2)cc1 [Example 851, (6S)-6-{[7-bromo-2-(4-methoxyphenyl)[1,2,4]triazolo[1,5-c]quinazolin-5-yl]amino}-1λ^6,4-thiazepane-1,1,5-trione] | 9.17e-10 M |  | 1.76 nM |
| CC(C)n1cc(-c2nc3c4cccc(C(F)(F)F)c4nc(N[C@@H]4CS(=O)(=O)CCNC4=O)n3n2)cn1 [Example 852, (6S)-6-({2-[1-(propan-2-yl)-1H-pyrazol-4-yl]-7-(trifluoromethyl)[1,2,4]triazolo[1,5-c]quinazolin-5-yl}amino)-1λ^6,4-thiazepane-1,1,5-trione] | 8.28e-09 M | 66.2 nM |  |
| Cn1cc(-c2nc3c4cccc(S(C)(=O)=O)c4nc(N[C@@H]4CCCCNC4=O)n3n2)cn1 [Example 858, (3R)-3-{[7-(methanesulfonyl)-2-(1-methyl-1H-pyrazol-4-yl)[1,2,4]triazolo[1,5-c]quinazolin-5-yl]amino}azepan-2-one] | 1.07e-07 M | 1560 nM |  |
| CCOC(=O)[C@@H](C)Nc1nc2c(C(F)(F)F)cccc2c2nc(-c3cnn(C)c3)nn12 [Example 864, ethyl N-[2-(1-methyl-1H-pyrazol-4-yl)-7-(trifluoromethyl)[1,2,4]triazolo[1,5-c]quinazolin-5-yl]-D-alaninate] | 2.57e-08 M | 378 nM |  |

Continued, in another order:

| IC50 [1] | IC50 [2, 3] | Compound | IC50 ([2]; read-out: AHR Antagonism Mouse IC50, Hepa 1c1c7 cells, 200 μM kynurenic acid, 20 hours, firefly luciferase reporter) |
| --- | --- | --- | --- |
| 7.6e-10 M | 1.81 nM | Cn1cc(-c2nc3c4cccc(Br)c4nc(N[C@@H]4CSCCNC4=O)n3n2)cn1 [Example 837, (6S)-6-{[7-bromo-2-(1-methyl-1H-pyrazol-4-yl)[1,2,4]triazolo[1,5-c]quinazolin-5-yl]amino}-1,4-thiazepan-5-one] |  |
| 9.63e-10 M | 2.02 nM | CC(C)n1cc(-c2nc3c4cccc(C(F)(F)F)c4nc(N[C@@H]4CSCCNC4=O)n3n2)cn1 [Example 838, (6S)-6-({2-[1-(propan-2-yl)-1H-pyrazol-4-yl]-7-(trifluoromethyl)[1,2,4]triaozlo[1,5-c]quinazolin-5-yl}amino)-1,4-thiazepan-5-one] |  |
| 1.82e-09 M | 3.01 nM | Cn1cc(-c2nc3c4cccc(Br)c4nc(N[C@H]4CSCCNC4=O)n3n2)cn1 [Example 841, (6R)-6-{[7-bromo-2-(1-methyl-1H-pyrazol-4-yl)[1,2,4]triazolo[1,5-c]quinazolin-5-yl]amino}-1,4-thiazepan-5-one] |  |
| 4.03e-10 M | 9.92 nM | COc1ccc(-c2nc3c4cccc(S(C)(=O)=O)c4nc(N[C@@H]4CCCCNC4=O)n3n2)cc1 [Example 842, (3R)-3-{[7-(methanesulfonyl)-2-(4-methoxyphenyl)[1,2,4]triazolo[1,5-c]quinazolin-5-yl]amino}azepan-2-one] |  |
| 1.76e-09 M | 10.9 nM | CCS(=O)(=O)c1cccc2c1nc(N[C@@H]1CCCCNC1=O)n1nc(-c3ccc(OC)cc3)nc21 [Example 844, (3R)-3-{[7-(ethanesulfonyl)-2-(4-methoxyphenyl)[1,2,4]triazolo[1,5-c]quinazolin-5-yl]amino}azepan-2-one] |  |
| 3.02e-09 M | 60.1 nM | CCn1cc(-c2nc3c4cccc(S(C)(=O)=O)c4nc(N[C@@H]4CCCCNC4=O)n3n2)c(C)n1 [Example 847, (3R)-3-{[2-(1-ethyl-3-methyl-1H-pyrazol-4-yl)-7-(methanesulfonyl)[1,2,4]triazolo[1,5-c]quinazolin-5-yl]amino}azepan-2-one] |  |
| 4.11e-09 M | 39.4 nM | COc1ccc(-c2nc3c4cccc(C(C)(C)O)c4nc(N[C@@H]4CCCCNC4=O)n3n2)cc1 [Example 859, (3R)-3-{[7-(2-hydroxypropan-2-yl)-2-(4-methoxyphenyl)[1,2,4]triazolo[1,5-c]quinazolin-5-yl]amino}azepan-2-one] |  |
| 9.26e-10 M | 16 nM | COc1ccc(-c2nc3c4cccc(CO)c4nc(N[C@@H]4CCCCNC4=O)n3n2)cc1 [Example 860, (3R)-3-{[7-(hydroxymethyl)-2-(4-methoxyphenyl)[1,2,4]triazolo[1,5-c]quinazolin-5-yl]amino}azepan-2-one] |  |
| 1.86e-09 M | 4.12 nM | COc1ccc(-c2nc3c4c(CO)cccc4nc(N[C@@H]4CCCCNC4=O)n3n2)cc1 [Example 862, (3R)-3-{[10-(hydroxymethyl)-2-(4-methoxyphenyl)[1,2,4]triazolo[1,5-c]quinazolin-5-yl]amino}azepan-2-one] |  |
| 2.98e-09 M | 12.9 nM | COc1ccc(-c2nc3c4cccc(CSC)c4nc(N[C@@H]4CCCCNC4=O)n3n2)cc1 [Example 863, (3R)-3-({2-(4-methoxyphenyl)-7-[(methylsulfanyl)methyl][1,2,4]triazolo[1,5-c]quinazolin-5-yl}amino)azepan-2-one] |  |
| 4.02e-09 M | 11.8 nM | CCOC(=O)[C@@H](C)Nc1nc2c(Br)cccc2c2nc(-c3ccc(OC)cc3)nn12 [Example 865, ethyl N-[7-bromo-2-(4-methoxyphenyl)[1,2,4]triazolo[1,5-c]quinazolin-5-yl]-D-alaninate] |  |
